According to ChEMBL document CHEMBL1201862, “PubChem BioAssay data set” (2004):
Counter-ions that a name gives are not always drawn. Activity calls are given as the source filed them.

What was measured:
[1] = HIV-1 Vif–A3G interaction blockers – biochemical, TR-FRET, GST-Vif 1-94, biotin-A3G peptide, dose response retest, primary screen (AID 1117319); format: functional;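 also: TR-FRET signal of purified GST-Vif binding a biotinylated A3G peptide; inhibitors lower the FRET signal by blocking Vif and A3G binding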
[2] = viability inhibitors of stage V gametocytes – luminescence, dose response (AID 1117278); format: functional, cell-based;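 also: gametocytes exposed to compound for 24 hours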
[3] = viability loss in human Jurkat cells – cell-based, luminescence, cytotoxicity control for P. falciparum gametocyte viability project, dose response (AID 1117277); format: functional;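 also: potency reflects loss of cellular ATP meaning fewer viable cells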
[4] = target: T1, Caspase-6 (Homo sapiens, UniProt P55212); assay: inhibition of CASP6 peptide cleavage – biochemical, VEID-R110 fluorescence, cherry-pick, dose response (AID 720632)
T1 sequence (P55212 whole entry): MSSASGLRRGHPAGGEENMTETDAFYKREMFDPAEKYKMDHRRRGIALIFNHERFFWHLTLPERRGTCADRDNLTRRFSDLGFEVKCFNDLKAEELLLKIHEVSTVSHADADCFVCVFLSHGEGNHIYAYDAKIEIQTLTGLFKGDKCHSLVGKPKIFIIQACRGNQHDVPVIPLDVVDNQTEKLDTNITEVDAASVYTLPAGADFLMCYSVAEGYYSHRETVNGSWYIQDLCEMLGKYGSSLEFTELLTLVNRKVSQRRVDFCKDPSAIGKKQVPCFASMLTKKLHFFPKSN

[5] = M. tuberculosis growth inhibition, HTS (AID 449762); format: functional
[6] = Trypanosoma cruzi growth suppression in host cells – NIH3T3 host cells, beta-gal luminescence, confirmation (AID 2044); format: functional, cell-based;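 also: intracellular parasites grown in NIH/3T3 mouse fibroblasts as host cells; luminescent beta-galactosidase reporter signal from transgenic T. cruzi replicating inside host cells; inhibitors lower the luminescence signal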
[7] = NIH3T3 cell viability loss – ATP luminescence, mouse fibroblasts, counter-screen, dose response (AID 2010); format: functional, cell-based;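 also: cells exposed to compound for about 90 hours before reading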
[8] = cells
[9] = target: Calpain-2 catalytic subunit (Sus scrofa, UniProt P43367); assay: m-calpain protease blockers, concentration series – biochemical, fluorogenic peptide substrate, dose response (AID 1420); format: functional
[10] = target: Ephrin type-A receptor 4 (Mus musculus, UniProt Q03137); assay: EphA4 ligand-binding antagonists – biochemical, colorimetric, mouse EphA4, primary screen (AID 689); format: functional
[11] = target: Cytochrome P450 2C19 (Homo sapiens, UniProt P33261); assay: Cytochrome panel assay with activity outcomes. Panel member name: p450-cyp2c19 Compounds with AC50 equal or less than 10 uM are considered active; format: functional; conditions: read-out: AC50
[12] = target: Cytochrome P450 3A4 (Homo sapiens, UniProt P08684);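 also: CYP3A4 tested as one member of a cytochrome P450 panel screen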
[13] = target: Cytochrome P450 2C9 (Homo sapiens, UniProt P11712)
[14] = Luminescence Cell-Based Dose Confirmation HTS to Identify Activators of 5'UTR Stem-Loop Driven Alpha-Synuclein mRNA Translation in H4 Neuroglioblastoma Cells. [Related pubchem assays: 1829 (Project Summary), 1814 (Primary HTS)]; format: functional
[15] = Luminescence Cell-Based Dose Response HTS to Identify Activators of Luciferase Translation or Activity in H4 […] Cells. [Related pubchem assays: 1829 (Project Summary), 1814 (Primary HTS)]; format: functional
[16] = tested on: H4; assay: Luminescence Cell-Based Dose Response HTS to Identify Activators of 5'UTR Stem-Loop Driven Prion Protein mRNA Translation in H4 Neuroglioblastoma Cells. [Related pubchem assays: 1829 (Project Summary), 1814 (Primary HTS)]; format: functional; conditions: Homo sapiens
[17] = target: Protein Tat (Human immunodeficiency virus type 1 group M subtype B (isolate HXB2)(HIV-1), UniProt P04608); format: functional;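 also: tat binding to TAR RNA read out by fluorescence polarization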
[18] = target: Estrogen receptor beta (Homo sapiens, UniProt Q92731); assay: blockers of SRC-3 recruitment to ERβ – biochemical, ELISA, streptavidin-HRP readout, orthogonal assay, confirmation (AID 1060)
[19] = NIH-3T3 fibroblast cytotoxicity, dose response, cytotoxicity control, cell-based, fluorescence, Alamar Blue, secondary assay (AID 2327); format: functional;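 also: NIH-3T3 mouse fibroblasts cultured with fluconazole at 8 µg/mL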
[20] = viability of uninfected HEp-2 cells – cell-based, HTS, cytotoxicity control for RSV inhibitor project, dose response (AID 2410); format: functional; conditions: human respiratory syncytial virus
[21] = fluconazole-exposed Candida albicans growth modulators – fluorescence, retest, confirmation (AID 2467); format: functional, cell-based
[22] = target: T2, Heat shock factor protein 1 (Mus musculus, UniProt P38532); assay: enhancement of HSF1-driven luciferase signal – cell-based, NIH3T3, luminescence, dose retest, confirmation (AID 435004); format: functional;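 also: stress induced by proteasome inhibitor MG132 added 30 min after compound; luciferase reporter driven by HSF1 response element in NIH3T3 cells; actives raise luminescence as potentiators of the MG132 stress response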
T2 sequence (P38532 whole entry): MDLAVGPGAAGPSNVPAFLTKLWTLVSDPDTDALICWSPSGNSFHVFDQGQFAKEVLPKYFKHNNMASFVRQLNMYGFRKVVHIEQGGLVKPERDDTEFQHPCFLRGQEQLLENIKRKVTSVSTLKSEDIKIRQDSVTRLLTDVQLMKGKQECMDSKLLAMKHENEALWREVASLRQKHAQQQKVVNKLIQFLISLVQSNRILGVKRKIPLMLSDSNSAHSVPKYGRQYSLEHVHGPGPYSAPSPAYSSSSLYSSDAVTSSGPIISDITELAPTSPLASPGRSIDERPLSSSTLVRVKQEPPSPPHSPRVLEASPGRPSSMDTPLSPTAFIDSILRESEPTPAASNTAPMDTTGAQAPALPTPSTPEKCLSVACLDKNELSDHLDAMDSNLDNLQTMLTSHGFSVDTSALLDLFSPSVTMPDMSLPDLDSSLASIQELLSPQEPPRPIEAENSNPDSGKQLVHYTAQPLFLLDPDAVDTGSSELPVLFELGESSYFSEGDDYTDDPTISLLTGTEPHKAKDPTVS

[23] = viability loss in HepG2 liver cells – cell-based, ATP luminescence, cherry-pick, set 6, cytotoxicity control, dose response (AID 1053125); format: functional
[24] = cells; conditions: A549
[25] = cells; conditions: HEK293
[26] = luciferase reporter signal suppression in cells – H4 neuroglioma cells, luminescence, dose response (AID 1990); format: functional, cell-based
[27] = Luminescence Cell-Based Dose Response HTS to Identify Inhibitors of 5'UTR Stem-Loop Driven Prion Protein mRNA Translation in H4 Neuroglioblastoma Cells. [Related pubchem assays: 1827 (Project Summary), 1813 (Primary HTS)]; format: functional
[28] = alpha-synuclein stem-loop luciferase translation blockers – H4 neuroglioma cells, luminescence, confirmation (AID 1988); format: functional, cell-based
[29] = target: Beta-galactosidase (Escherichia coli, UniProt Q8VNN2); assay: PubChem AID 485352; format: functional
[30] = HPDE-C7 pancreatic duct cell viability loss – fluorescence, HTS (AID 430); format: functional, cell-based; conditions: Homo sapiens
[31] = viability loss of HPDE-C7K cells – cell-based, fluorescence, HTS, primary screen (AID 431); format: functional; conditions: Homo sapiens
[32] = target: T3, Type-1 angiotensin II receptor (Homo sapiens, UniProt P30556); assay: antagonism of angiotensin II type 1 receptor – cell-based, uHTS hits, selectivity assay for APJ receptor antagonist project, dose response (AID 463214); format: functional;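 also: antagonist potency against angiotensin II stimulated AT1 response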
T3 sequence (P30556 whole entry): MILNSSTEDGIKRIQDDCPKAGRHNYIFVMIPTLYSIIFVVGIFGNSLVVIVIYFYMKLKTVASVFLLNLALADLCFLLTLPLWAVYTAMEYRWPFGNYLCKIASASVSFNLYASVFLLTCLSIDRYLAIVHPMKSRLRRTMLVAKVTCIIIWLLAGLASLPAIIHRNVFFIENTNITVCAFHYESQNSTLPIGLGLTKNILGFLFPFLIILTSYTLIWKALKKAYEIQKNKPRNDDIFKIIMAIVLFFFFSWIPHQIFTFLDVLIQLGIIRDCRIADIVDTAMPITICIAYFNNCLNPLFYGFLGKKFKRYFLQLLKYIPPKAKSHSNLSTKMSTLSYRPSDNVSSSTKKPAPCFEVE

[33] = HEK-293T viability loss after treatment – luminescence, T-cell screen hits, cytotoxicity control for TCR NF-kB inhibitor project, dose response (AID 489026); format: functional, cell-based;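 also: cells exposed to compound about 14 hours before the viability readout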
[34] = target: T4, Ubiquitin-conjugating enzyme E2 N (Homo sapiens, UniProt P61088); format: functional;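 also: Dose-response confirmation in a TR-FRET assay detecting UBC13-driven polyubiquitin chain formation, inhibition measured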
T4 sequence (P61088 whole entry): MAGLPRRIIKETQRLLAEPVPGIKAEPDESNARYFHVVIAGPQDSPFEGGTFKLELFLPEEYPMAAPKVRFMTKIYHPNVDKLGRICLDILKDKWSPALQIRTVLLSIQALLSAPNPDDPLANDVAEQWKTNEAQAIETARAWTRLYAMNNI

[35] = Luminescent dose response cell-based high throughput screening assay for inhibitors of the Janus kinase 2 mutant JAK2V617F. [Related pubchem assays: 1446 (Primary screen.), 1521 (Confirmation assay.), 1486 (Counter screen.)]; format: functional
[36] = target: T5, Rac GTPase-activating protein 1 (Homo sapiens, UniProt Q9H0H5); assay: blockers of MgcRacGAP-driven Rac1 GTP hydrolysis – biochemical, ADP Hunter fluorescence, primary and confirmatory, confirmation (AID 624330); format: functional
T5 sequence (Q9H0H5 whole entry): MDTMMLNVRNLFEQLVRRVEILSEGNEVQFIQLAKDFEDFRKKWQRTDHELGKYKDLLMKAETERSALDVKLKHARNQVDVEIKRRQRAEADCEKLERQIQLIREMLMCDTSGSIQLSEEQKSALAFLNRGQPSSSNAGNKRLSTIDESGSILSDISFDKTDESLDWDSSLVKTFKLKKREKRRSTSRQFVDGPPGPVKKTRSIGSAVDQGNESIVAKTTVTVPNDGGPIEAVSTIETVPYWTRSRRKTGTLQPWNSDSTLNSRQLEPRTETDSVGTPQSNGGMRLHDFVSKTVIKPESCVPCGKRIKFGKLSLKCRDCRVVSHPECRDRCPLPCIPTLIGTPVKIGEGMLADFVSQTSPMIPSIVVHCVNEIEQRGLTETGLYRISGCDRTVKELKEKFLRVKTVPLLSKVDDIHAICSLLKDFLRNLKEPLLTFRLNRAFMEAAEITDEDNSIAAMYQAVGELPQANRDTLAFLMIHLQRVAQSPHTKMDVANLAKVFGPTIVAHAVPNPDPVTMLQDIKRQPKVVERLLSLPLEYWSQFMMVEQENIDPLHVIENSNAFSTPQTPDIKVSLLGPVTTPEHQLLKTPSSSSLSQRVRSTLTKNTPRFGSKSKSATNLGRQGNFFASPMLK

Calpain-2 catalytic subunit, sequence (P43367 whole entry): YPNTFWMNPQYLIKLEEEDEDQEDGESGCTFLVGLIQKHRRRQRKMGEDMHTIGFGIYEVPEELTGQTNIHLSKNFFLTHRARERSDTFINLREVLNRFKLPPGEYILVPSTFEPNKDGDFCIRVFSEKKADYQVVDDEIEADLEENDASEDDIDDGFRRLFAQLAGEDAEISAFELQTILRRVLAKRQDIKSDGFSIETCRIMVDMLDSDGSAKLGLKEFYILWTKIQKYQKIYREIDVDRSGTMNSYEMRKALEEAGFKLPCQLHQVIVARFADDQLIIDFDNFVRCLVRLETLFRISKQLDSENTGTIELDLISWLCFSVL
Estrogen receptor beta, sequence (Q92731 whole entry): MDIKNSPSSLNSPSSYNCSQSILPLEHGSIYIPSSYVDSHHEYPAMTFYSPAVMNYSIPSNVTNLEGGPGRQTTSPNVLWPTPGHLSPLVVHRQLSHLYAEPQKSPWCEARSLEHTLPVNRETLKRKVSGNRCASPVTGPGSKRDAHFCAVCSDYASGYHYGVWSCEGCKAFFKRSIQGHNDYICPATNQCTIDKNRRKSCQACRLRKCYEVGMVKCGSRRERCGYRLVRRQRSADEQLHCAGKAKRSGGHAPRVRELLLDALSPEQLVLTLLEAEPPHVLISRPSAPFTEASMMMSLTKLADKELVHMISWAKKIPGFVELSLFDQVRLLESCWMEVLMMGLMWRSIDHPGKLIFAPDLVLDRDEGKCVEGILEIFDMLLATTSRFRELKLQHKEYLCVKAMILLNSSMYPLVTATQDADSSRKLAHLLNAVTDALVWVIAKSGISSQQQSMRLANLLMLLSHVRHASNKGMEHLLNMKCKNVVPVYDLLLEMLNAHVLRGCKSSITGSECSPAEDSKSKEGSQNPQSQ
Cytochrome P450 2C9, sequence (P11712 whole entry): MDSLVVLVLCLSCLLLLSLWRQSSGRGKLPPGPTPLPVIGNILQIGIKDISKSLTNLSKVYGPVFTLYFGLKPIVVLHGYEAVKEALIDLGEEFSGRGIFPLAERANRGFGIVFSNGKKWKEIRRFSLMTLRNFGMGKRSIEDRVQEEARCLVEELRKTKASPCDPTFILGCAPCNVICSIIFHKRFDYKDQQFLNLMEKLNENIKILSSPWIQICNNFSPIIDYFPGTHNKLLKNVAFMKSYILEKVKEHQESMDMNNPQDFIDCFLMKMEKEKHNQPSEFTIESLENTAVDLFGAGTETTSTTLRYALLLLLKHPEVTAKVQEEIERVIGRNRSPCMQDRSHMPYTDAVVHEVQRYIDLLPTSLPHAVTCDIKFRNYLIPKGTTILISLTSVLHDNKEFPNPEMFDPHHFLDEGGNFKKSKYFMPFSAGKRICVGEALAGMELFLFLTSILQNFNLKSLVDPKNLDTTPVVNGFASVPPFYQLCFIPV
Cytochrome P450 3A4, sequence (P08684 whole entry): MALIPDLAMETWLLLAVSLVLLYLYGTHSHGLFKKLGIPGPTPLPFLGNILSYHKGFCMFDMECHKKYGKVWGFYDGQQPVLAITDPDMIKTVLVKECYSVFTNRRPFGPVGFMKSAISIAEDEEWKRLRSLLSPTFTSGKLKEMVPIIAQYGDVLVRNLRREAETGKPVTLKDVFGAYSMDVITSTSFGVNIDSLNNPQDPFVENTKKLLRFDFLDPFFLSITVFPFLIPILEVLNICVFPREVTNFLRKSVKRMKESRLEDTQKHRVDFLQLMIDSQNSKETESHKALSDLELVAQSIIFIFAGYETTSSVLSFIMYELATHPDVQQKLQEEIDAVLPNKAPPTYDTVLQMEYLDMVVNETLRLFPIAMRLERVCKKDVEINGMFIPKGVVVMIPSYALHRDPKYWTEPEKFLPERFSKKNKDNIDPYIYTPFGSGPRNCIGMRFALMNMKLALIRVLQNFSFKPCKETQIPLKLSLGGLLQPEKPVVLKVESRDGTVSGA
Ephrin type-A receptor 4, sequence (Q03137 whole entry): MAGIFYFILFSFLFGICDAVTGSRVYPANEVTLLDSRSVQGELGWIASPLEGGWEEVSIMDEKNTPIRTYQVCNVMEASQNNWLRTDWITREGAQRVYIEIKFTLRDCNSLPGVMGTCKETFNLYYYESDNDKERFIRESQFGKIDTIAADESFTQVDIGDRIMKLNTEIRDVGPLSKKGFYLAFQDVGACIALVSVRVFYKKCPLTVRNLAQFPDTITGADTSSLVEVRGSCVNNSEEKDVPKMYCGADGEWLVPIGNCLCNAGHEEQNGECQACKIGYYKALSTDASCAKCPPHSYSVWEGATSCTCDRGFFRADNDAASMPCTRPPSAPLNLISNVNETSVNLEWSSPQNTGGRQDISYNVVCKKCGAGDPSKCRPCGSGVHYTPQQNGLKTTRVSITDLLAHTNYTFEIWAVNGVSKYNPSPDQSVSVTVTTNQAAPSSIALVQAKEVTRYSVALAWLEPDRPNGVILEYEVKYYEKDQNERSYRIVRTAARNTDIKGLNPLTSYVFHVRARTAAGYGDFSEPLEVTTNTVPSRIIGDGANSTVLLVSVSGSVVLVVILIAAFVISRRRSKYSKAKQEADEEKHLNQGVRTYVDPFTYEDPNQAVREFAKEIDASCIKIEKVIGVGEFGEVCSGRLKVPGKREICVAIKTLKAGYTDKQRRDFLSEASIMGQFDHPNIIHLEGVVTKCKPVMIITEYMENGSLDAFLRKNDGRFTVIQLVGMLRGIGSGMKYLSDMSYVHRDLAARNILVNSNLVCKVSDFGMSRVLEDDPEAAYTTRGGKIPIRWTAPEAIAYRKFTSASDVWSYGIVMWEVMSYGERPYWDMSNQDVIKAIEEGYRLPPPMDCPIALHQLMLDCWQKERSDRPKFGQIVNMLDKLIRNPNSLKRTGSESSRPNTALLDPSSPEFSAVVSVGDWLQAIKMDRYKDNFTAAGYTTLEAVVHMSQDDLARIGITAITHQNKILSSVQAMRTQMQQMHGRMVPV
Protein Tat, sequence (P04608 whole entry): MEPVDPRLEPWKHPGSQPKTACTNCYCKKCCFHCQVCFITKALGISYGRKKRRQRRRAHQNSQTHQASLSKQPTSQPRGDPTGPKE
Beta-galactosidase, sequence (Q8VNN2 whole entry): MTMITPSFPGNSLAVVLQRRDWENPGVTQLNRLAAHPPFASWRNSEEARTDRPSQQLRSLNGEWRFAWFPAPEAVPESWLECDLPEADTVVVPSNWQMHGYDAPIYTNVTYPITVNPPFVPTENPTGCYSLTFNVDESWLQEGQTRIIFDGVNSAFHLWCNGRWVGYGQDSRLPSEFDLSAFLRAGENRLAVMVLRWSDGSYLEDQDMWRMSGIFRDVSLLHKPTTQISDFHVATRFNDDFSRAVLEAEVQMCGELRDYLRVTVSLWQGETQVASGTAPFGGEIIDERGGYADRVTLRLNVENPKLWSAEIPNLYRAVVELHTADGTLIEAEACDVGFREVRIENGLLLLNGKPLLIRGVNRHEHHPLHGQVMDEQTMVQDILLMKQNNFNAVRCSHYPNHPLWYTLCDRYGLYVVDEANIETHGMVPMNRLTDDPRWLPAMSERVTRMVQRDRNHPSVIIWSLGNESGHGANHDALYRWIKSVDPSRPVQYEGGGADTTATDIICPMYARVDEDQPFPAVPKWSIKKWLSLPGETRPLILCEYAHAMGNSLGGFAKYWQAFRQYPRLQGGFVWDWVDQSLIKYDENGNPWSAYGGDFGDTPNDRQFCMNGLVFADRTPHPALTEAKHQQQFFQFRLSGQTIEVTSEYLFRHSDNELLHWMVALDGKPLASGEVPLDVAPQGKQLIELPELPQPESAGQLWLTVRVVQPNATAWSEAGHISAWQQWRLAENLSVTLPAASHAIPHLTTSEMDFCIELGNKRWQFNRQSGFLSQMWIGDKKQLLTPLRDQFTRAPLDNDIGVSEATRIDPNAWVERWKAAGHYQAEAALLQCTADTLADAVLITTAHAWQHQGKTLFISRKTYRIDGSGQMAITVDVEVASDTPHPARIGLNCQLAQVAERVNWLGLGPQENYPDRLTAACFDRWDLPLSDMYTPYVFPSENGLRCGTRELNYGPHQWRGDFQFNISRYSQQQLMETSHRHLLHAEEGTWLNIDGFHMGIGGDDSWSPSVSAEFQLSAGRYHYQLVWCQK
Cytochrome P450 2C19, sequence (P33261 whole entry): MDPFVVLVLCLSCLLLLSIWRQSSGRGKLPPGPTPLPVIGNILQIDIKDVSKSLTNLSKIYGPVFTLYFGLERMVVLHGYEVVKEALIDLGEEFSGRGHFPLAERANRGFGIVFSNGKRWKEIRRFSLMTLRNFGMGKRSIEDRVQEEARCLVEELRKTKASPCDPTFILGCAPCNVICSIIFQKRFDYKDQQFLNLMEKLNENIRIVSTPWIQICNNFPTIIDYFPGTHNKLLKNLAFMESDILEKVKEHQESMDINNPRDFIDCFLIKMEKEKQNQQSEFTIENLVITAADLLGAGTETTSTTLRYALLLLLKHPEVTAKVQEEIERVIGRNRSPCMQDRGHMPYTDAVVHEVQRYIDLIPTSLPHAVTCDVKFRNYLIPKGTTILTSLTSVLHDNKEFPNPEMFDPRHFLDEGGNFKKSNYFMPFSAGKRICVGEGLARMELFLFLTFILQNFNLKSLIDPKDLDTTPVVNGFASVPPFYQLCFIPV

CC(=O)c1ccc(S(=O)(=O)Nc2cccc(-c3ccc(N4CCOCC4)nn3)c2)cc1
IC50 [1]: > 100 µM (active)

O=C(NCCCN1CCC(Cc2ccccc2)CC1)C1CCN(S(=O)(=O)N2CCC3(CC2)OCCO3)CC1
IC50 [2]: > 109 µM (inactive) | IC50 [3]: > 83.3 µM (inactive)

CCC(CO)NC(=O)C1C=C2c3cccc4[nH]cc(c34)CC2N(C)C1 (centres undefined)
AC50 [4]: 27.3 µM (active)

COc1ccc(N2CN=C3SCC(=O)N3C2)cc1
IC50 [5]: > 100 µM (active)

Cn1ccnc1C(O)c1cc(C(C)(C)C)c(O)c(C(C)(C)C)c1 (centres undefined)
IC50 [5]: > 100 µM (active)

CN(C)CCCNc1ccc(-c2nn(C)c(=O)c3ccccc23)cc1[N+](=O)[O-]
EC50 [6]: < 0.1 µM (active) | EC50 [7]: > 60 µM (not active) | EC50 [8]: 0.135 µM (active)

CCN(CC)S(=O)(=O)c1ccc(Cl)c(NC(=O)COC(=O)c2cccn2C)c1
IC50 [2]: > 109 µM (inactive) | IC50 [3]: > 83.3 µM (inactive)

Cc1cccc(OCc2nnc(S)n2C2CCCCC2)c1
IC50 [9]: 15 µM (not active)

CCOC(=O)C1=C(c2ccccc2)N=c2s/c(=C\c3cc(OC)c(OC)c(OC)c3)c(=O)n2C1c1cccs1 (centres undefined)
EC50 [6]: 1.29 µM (active) | EC50 [7]: > 60 µM (not active) | IC50 [10]: 1.49 µM (active) | AC50 [11]: 0.631 µM (inconclusive) | AC50 [12]: 7.08 µM (inconclusive) | AC50 [13]: 1.26 µM (inconclusive)

Cc1ccc2nc3c(cc2c1)CC1(C(=O)N(C)C(=O)N(C)C1=O)C1CCCCN31 (centres undefined)
EC50 [14]: 35.6 µM (active) | EC50 [15]: 73.9 µM (active) | EC50 [16]: 12 µM (active) | IC50 [17]: > 100 µM (active)

CC1CCCCN1CC(=O)Nc1sc2c(c1C#N)CCCC2 (centres undefined)
IC50 [18]: 0.0301 µM (not active)

N#CC(C#N)=C1C=CC=CN1/C(=C\c1ccccc1)C(=O)c1cccs1
EC50 [19]: 14.3 µM (active) | CC50 [20]: 21.6 µM (active) | EC50 [21]: > 38 µM (not active) | EC50 [22]: 4.04 µM (active) | AC50 [23]: 49.7 µM (active) | AC50 [24]: > 52 µM (inactive) | AC50 [25]: 22.1 µM (active)

CCOc1ccc(-c2cc(C)[n+](CCN(CC)CC)c(-c3ccc(OCC)cc3)c2)cc1.[O-][Cl+3]([O-])([O-])[O-]
EC50 [19]: 98.5 µM (active) | EC50 [26]: 10.2 µM (active) | EC50 [27]: 14.6 µM (active) | EC50 [28]: 8.8 µM (active) | EC50 [21]: 0.258 µM (active) | EC50 [6]: < 0.1 µM (active) | EC50 [7]: > 60 µM (not active) | EC50 [8]: 0.089 µM (active)

CCOC(=O)/C=C/S(=O)(=O)c1ccc(NC(C)=O)cc1
EC50 [29]: > 40 µM (inactive) | EC50 [30]: 8.93 µM (active) | EC50 [31]: 10.4 µM (active) | IC50 [32]: 9.22 µM (active) | IC50 [33]: > 80 µM (inactive)

Cc1ccc2nc(NC(=O)CN(C)S(=O)(=O)c3cccc4nsnc34)sc2c1
IC50 [9]: > 50 µM (not active)

CNCCC(Oc1ccc(C(F)(F)F)cc1)c1ccccc1 (centres undefined) [FLUOXETINE HYDROCHLORIDE]
EC50 [30]: > 20 µM (not active) | EC50 [31]: > 20 µM (not active) | IC50 [34]: > 20 µM (inactive)

Oc1ccc(Cl)cc1/N=C/c1sc2ccccc2c1Cl
IC50 [35]: 1.15 µM (active) | IC50 [36]: 20.4 µM (active)
